Experimental data reported in paper PMC12406253, “Exploration of the Neuromodulatory Properties of Fyn and GSK-3β Kinases Exploiting 7‑Azaindole-Based Inhibitors” (Journal of Medicinal Chemistry, 2025).

Key:
[1] = test system: neurospheres (NPCs from the subventricular zone); test: Neurosphere growth analysis (NPC proliferation); type: cell-based, mice; conditions: 0.1, 1, and 5 μM; 7 days
Protocol: Based on that, we further investigated the neurogenic and differentiation potential of our kinase inhibitors in cell culture of neurospheres, which are floating pools of NPCs coming from the subventricular zone (SVZ) of six-month-old mice. Particularly, we first analyzed the variation, during 7 days, in number and size of neurosphere population with and without treatment.
To investigate the effect of compounds of interest in neurospheres’ growth rate, single spheres were plated in suspension in 96-well plates (5 × 10^3 cells/well) in the presence of compounds (0.1 μM, 1 μM, and 5 μM) in complete DMEM F-12 culture medium. One image/well was acquired every day by using the Sartorius Incucyte Live-Cell Analysis System and evaluated through the Brightfield Spheroid Analysis Software Module. Only aggregates with areas larger than 400 μm^2 were considered for statistical analysis.

[2] = BBB permeability in hCMEC/D3 transwell model; conditions: human
Protocol: (§1) To this aim, the immortalized human brain endothelial cell line (hCMEC/D3) was used since it mimics the brain endothelium-restricted permeability and expresses most of the transporters and receptors present in vivo, constituting a valuable in vitro model of the human BBB crossing system.
(§2) BBB permeability assay was conducted as described in Albertini et al. The brain microvascular endothelial cells (hCMEC/D3) were seeded at the density of 5 × 10^4 cells per cm^2 in the upper compartment of Transwell filters (polyester, pore size 0.4 μm, 12-well tissue culture transwell; Corning), precoated with rat tail collagen type I (0.1 mg/mL; Roche). They were grown for 7 days up to confluence in Endothelial Cell Growth Medium 2 (Promocell), supplemented with penicillin/streptomycin 100 U/mL, in a humidified, 5% CO2 incubator at 37 °C. Confluent monolayers were washed in prewarmed HBSS buffer, and the selected compounds were added to the apical (AP) side at a concentration of 100 μM. […] Samples (100 μL) were collected from the BL side at different time points (15, 30, 60, and 90 min) and then replaced with the corresponding volume of HBSS buffer. […] The concentration of compounds was determined using a Ultimate 3000 HPLC system (ThermoFisher) with UV–vis detection at the maximum absorption wavelength of each compound except for inulin as determined by a spectrophotometric method using a Tecan Sunrise absorbance microplate reader. […] The permeability coefficient (Papp) was calculated as follows: Papp = (ΔQ/Δt)/(C [donor] × A), where ΔQ/Δt represents the permeation rate (mol/s), C [donor] is the initial compound concentration in the donor compartment at time 0 (mol/cm^3), and A represents the surface area of the filter (1.12 cm^2).

[3] = test system: primary rat cerebellar granule neurons (CGNs); test: Neuroprotection in CGNs, serum/potassium deprivation (MTT); type: cell-based; conditions: 5, 10, and 25 μM, 48 h
Source text: First, we evaluated the neuroprotective properties of the selected compounds in the same cell line, once the expression of Fyn and GSK-3β in this cellular model was verified (Figure S2), after a serum/potassium deprivation experiment, which simulates physiological aging (and mortality), triggering around 20% of cell death. In particular, 7 days differentiated CGNs were exposed to serum-free BME medium with low extracellular concentration of K^+ ions and treated at selected doses (i.e., 5, 10, and 25 μM) of compounds for 48 h. Neuronal viability was then determined with an MTT assay.
To evaluate the neuroprotective effect of our compounds, we tested increasing concentrations (5 μM, 10 μM, 25 μM) of compounds of interest in differentiated CGNs switched to serum-free BME medium with 5 mM KCl (serum-potassium deprivation) for 48 h to mimic in vitro the naturally occurring death of granule cells. Neuroprotection was evaluated through MTT assay.
For MTT assay, thiazolyl blue was added to the culture medium at a final concentration of 0.1 mg/mL. Following a 20 min incubation at 37 °C in the dark, the MTT precipitate was dissolved in 0.1 M Tris–HCl pH 7.5 buffer containing 5% Triton X-100 (all from Sigma-Aldrich) and absorbance was read at 570 nm in a microplate spectrophotometric reader (Bio-Rad).

FYNα = FYNα (Homo sapiens, UniProt P06241); test: FYNα kinase assay, LANCE Ultra TR-FRET; type: biochemical; conditions: mean ± SD of at least three independent determinations; ATP near Km; read-out: Fyn IC50
Protocol: GSK-3β and FYNα kinase assays were run in 384-well microplates (OptiPlate-384, White, PerkinElmer) in a total reaction volume of 20 μL. The inhibitory potency against human recombinant GSK-3β and FYNα (Carna Biosciences) was evaluated using the LANCE Ultra (PerkinElmer) time-resolved fluorescence resonance energy transfer (TR-FRET) by measuring the phosphorylation of the ULight-labeled substrate, according to the manufacturer’s instructions. The synthetic peptide surrounding Ser641 of human muscle glycogen synthase (ULight-GS (Ser641/pSer657)) and the synthetic 28-amino acid peptide containing eight Tyr residues placed in different amino acid contexts (ULightTM-TK (PT66)) were selected as specific substrates for GSK-3β and FYNα, respectively. Briefly, test compounds and staurosporine (reference compound) or DMSO (control) are mixed with the enzyme (GSK-3β: 2 nM and FYNα: 1 nM) in a buffer containing 50 mM HEPES (pH 7.5), 1 mM EGTA, 10 mM MgCl2, 2 mM DTT, and 0.01% Tween-20. […] Following incubation, the reaction is stopped by adding 6 mM EDTA. After 5 min, the antiphospho antibody labeled with europium chelate is added. After 1 more hour, the kinase reaction is monitored by irradiation at 320 nm and the fluorescence measured at 615 and 665 nm, using EnVision 2014 Multilabel Reader (PerkinElmer). The calculated signal ratio at 665/615 nm is proportional to the extent of ULight-substrate phosphorylation. The compounds were tested at 11 different concentrations ranging from 3 nM up to 100 μM in triplicate. […] The results were expressed as a percent inhibition of the control enzyme activity.
Dose–response curves were run in at least three independent experiments, performed in three technical replicates. IC50 values (concentrations causing half-maximal enzyme inhibition) were determined by nonlinear regression analysis of the Log[concentration]/response curves generated with mean replicate values using a four parameter Hill equation curve fitting with GraphPad Prism 8 (GraphPad Software Inc., CA-USA).

[4] = test system: immortalized murine microglia N9; test: Immunomodulation in LPS-treated N9 microglia, Western blot of iNOS and TREM2; conditions: 2.5 and 5 μM; 100 ng/mL LPS, 24 h
Protocol: To gain a conclusive answer on the potential role of these kinase inhibitors in counteracting neuroinflammatory processes, after the verified induced astrocytic polarization, the ability of selected compounds to modulate inflammatory response was analyzed by favoring the immunomodulatory switch from neurotoxic M1 phenotype of microglia to phagocytic and neuroprotective M2 phenotype, evaluating inducible nitric oxide synthase (iNOS) and TREM2 as M1 and M2 markers (Figure ).
The microglial phenotype was evaluated through Western blot analysis of the pro-inflammatory iNOS and anti-inflammatory-TREM2 markers.

[5] = test system: neurospheres (NPCs from the subventricular zone); test: Neurosphere differentiation, immunofluorescence of DCX, GFAP, OLIG2; type: cell-based, mice; conditions: 1 μM; 7 days
Source text: Lastly, we move forward to evaluate the neuromodulatory profile of selected compounds that involves the capability to polarize the spontaneous differentiation of neurospheres, which potentially can maturate in neurons or macroglia, such as astrocytes and oligodendrocytes. Modulating NPC differentiation is especially relevant under neurodegenerative conditions as it could offer an intriguing opportunity to achieve polyhedric therapeutic effects. Importantly, neuronal differentiation may help to counteract the progressive neuronal loss, while promoting oligodendrocyte phenotype could support remyelination and neuronal function and the astrocytic polarization may aid to foster a neuroprotective profile. Particularly, after 7 days of treatment at 1 μM, in the same experimental conditions previously reported, cells were fixed and stained with different antibody markers such as doublecortin (DCX) for the immature neurons, glial fibrillary acidic protein (GFAP) for astrocytes, and oligodendrocyte transcription factor 2 (OLIG2) for oligodendrocyte precursors for immunofluorescence analysis (Figure a). […] By driving the maturation of astrocytes, compounds 41 and 43 could exert neuroprotection through multiple mechanisms, including the secretion of neurotrophic factors, enhancement of antioxidant defenses, regulation of water balance, ion homeostasis, and glutamate buffering and recycling. Furthermore, astrocytes support the integrity of the blood–brain barrier (BBB) and aid in the refinement of neural networks via synaptic pruning, further reinforcing their role in preserving brain function and structure.
NSCs were initially obtained by SVZ microdissection of 6 months-old C57BL/6N wild-type male mice (Mus musculus) and routinely cultured in suspension in DMEM-F12 (Gibco; ThermoFisher Scientific, Waltham, MA, USA) supplemented with 2 mM glutamine, 10 μg/mL insulin from bovine pancreas (Sigma-Aldrich; St Louis, MO, USA), 20 ng/mL epidermal growth factor (EGF; PeproTech EC, London, UK), 20 ng/mL fibroblast growth factor-2 (FGF2; PeproTech), 1% N2 (ThermoFisher Scientific), 1% B27 (ThermoFisher Scientific), 10 units/mL penicillin, and 10 μg streptomycin.
To assess the effect of compounds of interest in NSCs differentiation, 30 spheres were plated on 13 mm glass coverslips, previously coated with Matrigel matrix (Corning; New York, USA), in complete DMEM F-12 medium, and treated with 1 μM of compounds of interest. After 7DIV, neurospheres were fixed for 20 min with 4% PFA in PBS 0.1% pH 7.4. Fixed neurospheres were permeabilized in 0.1% Triton/PBS and nonspecific sites were blocked for 1 h with 0.1% Triton/PBS and 5% normal goat serum (Sigma-Aldrich; St Louis, MO, USA). Cells were then incubated overnight at 4 °C with the following primary antibodies: Anti-Doublecortin DCX (Abcam, Cambridge, UK), GFAP (Dakopatts), OLIG2 (Santa Cruz Biotechnology), 1:500 dilution in 0.1% Triton/PBS with 2% normal goat serum. After 3 washes in 0.1% Triton/PBS, specific secondary antibodies were added for 2 h at RT in the dark: Donkey anti-Mouse IgG Alexafluor 555 (Abcam, Cambridge, UK), Goat anti-Rabbit IgG Alexafluor 555 (Abcam, Cambridge, UK), 1:1000 dilution in 0.1% Triton/PBS with 2% normal goat serum. Following 3 washes in 0.1% Triton/PBS, nuclei were stained with DAPI (2 μg/mL, Sigma-Aldrich) for 5 min. Glass coverslips were mounted by using Ultracruz Aqueous Mounting Medium with DAPI (Santa Cruz Biotechnology). Neurospheres confocal images were obtained with a Nikon EZ-C1 microscope (60× objective) and the z-stack function (1024 steps and 1 μm thickness layers; 40 total stacks). 3D image reconstruction was performed by using Fiji ImageJ2 software, z-project plugin, and selecting the sum stacks’ function. Fluorescence intensity index was estimated as the ratio of markers’ positive cells intensity/total cells fluorescence intensity stained with DAPI per ROI.

[6] = test system: primary rat cerebellar granule neurons (CGNs); test: Neurotoxicity, cell viability in CGNs (MTT); type: cell-based; conditions: 5, 10, and 25 μM, 24 h
Protocol: A preliminary cell viability assessment was conducted in primary rat cerebellar granule neurons (CGNs), which are considered a reliable model for studying cellular and molecular mechanisms of survival/apoptosis and neurodegeneration/neuroprotection.
Primary cerebellar granule cells were dissociated from cerebella and plated on 96-well plates, previously coated with 10 μg/mL poly-L-lysine, at a density of 1.2 × 10^5 cells/0.2 mL medium/well in BME supplemented with 10% heat-inactivated FBS (Life Technologies), 2 mmol/L glutamine, 100 μmol/L gentamicin sulfate, and 25 mM KCl (all from Sigma-Aldrich). Sixteen hours later, 10 μM cytosine arabinofuranoside (Sigma-Aldrich) was added to avoid glial proliferation. After 7 days in vitro, differentiated neurons were shifted to serum-free BME medium and exposed to increasing concentrations (5 μM, 10 μM, 25 μM) of compounds of interest for 24 h. Then, cell viability was evaluated through the MTT assay.

[7] = test system: immortalized human brain endothelial cell line (hCMEC/D3); test: BBB permeability in hCMEC/D3 transwell model; conditions: 100 μM apical; ± SE
Protocol: as §1, §2

Sequence of FYNα (P06241 whole entry): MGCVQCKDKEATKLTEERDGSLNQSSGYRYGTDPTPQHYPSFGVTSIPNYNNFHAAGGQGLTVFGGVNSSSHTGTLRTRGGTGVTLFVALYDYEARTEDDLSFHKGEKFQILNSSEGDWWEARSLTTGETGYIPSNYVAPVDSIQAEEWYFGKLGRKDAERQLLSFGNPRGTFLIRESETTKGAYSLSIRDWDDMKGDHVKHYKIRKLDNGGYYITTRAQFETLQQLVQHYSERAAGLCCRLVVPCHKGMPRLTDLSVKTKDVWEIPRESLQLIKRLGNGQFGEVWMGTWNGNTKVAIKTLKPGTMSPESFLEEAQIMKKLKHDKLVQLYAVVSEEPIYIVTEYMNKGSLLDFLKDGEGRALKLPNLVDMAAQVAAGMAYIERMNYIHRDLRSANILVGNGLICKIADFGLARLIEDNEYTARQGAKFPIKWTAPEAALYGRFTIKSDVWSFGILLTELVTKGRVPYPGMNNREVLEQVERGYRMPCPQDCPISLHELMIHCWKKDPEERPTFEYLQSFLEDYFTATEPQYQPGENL

| Molecule | Neurosphere dimension (brightfield object total area), maturation [1] | Neurosphere number (object count per image), neurogenesis [1] | Papp A→B at 90 min, 100 μM [2] [×10⁻⁶ cm/s] | Neuroprotection on CGNs (cell viability after serum/potassium deprivation) [3] | IC50 (FYNα) [nM] | TREM2 expression (M2 marker) vs LPS [4] | iNOS expression (M1 marker) vs LPS [4] | Differentiation toward oligodendrocytes (OLIG2) [5] | Increase in registered cell viability in comparison to control [6] | Neurotoxicity on CGNs (cell viability compared to control) [6] | Permeability coefficient Papp [7] |
| --- | --- | --- | --- | --- | --- | --- | --- | --- | --- | --- | --- |
| Br.Clc1cc(CNc2nc(-c3c[nH]c4ncccc34)cs2)ccn1 [Compound 28, N-((2-Chloropyridin-4-yl)methyl)-4-(1H-pyrrolo[2,3-b]pyridin-3-yl)thiazol-2-amine Hydrobromide] | noticeable maturation at days 6 and 7 | pronounced neurogenesis | 12.4 ± 1.13 | mitigate the physiological senescence and mortality rate | 710 ± 90 | no significant variations | notably decreased the M1 marker at both tested concentrations | this effect was mitigated | amplified | not neurotoxic | – |
| inulin [reference compound] | – | – | – | – | – | – | – | – | – | – | 6.74± 1.7 10-6 cm/s |
